US7642221B2, “Substituted thien-3-yl-sulphonylamino(thio)carbonyl-triazoline(ethi)ones” (Bayer Aktiengesellschaft, priority 1999, dated 2010)
Each block holds one molecule with its values, some of them ahead of it.

Assays:
[1] = tested on: Alopecurus; experiment: Pre-emergence test/greenhouse; format: in vivo; conditions: greenhouse, rated after three weeks
Method: (§1) • Solvent: 5 parts by weight of acetone • Emulsifier: 1 part by weight of alkylaryl polyglycol ether
(§2) To produce a suitable preparation of active compound, 1 part by weight of active compound is mixed with the stated amount of solvent, the stated amount of emulsifier is added and the concentrate is diluted with water to the desired concentration.
(§3) Seeds of the test plants are sown in normal soil. After about 24 hours, the soil is sprayed with the preparation of active compound such that the particular amount of active compound desired is applied per unit area. The concentration of the spray liquor is chosen so that the particular amount of active compound desired is applied in 1000 liters of water per hectare.
(§4) After three weeks, the degree of damage to the plants is rated in % damage in comparison to the development of the untreated control.
(§5) The figure denote: • 0%=no effect (like untreated control) • 100%=total destruction

[2] = tested on: Bromus; experiment: Pre-emergence test/greenhouse; format: in vivo; conditions: greenhouse, rated after three weeks
Method: as §1, §2, §3, §4, §5

[3] = tested on: Chenopodium; experiment: Pre-emergence test/greenhouse; format: in vivo; conditions: greenhouse, 60 g of ai/ha, rated after three weeks
Method: as §1, §2, §3, §4, §5

[4] = tested on: Matricaria; experiment: Pre-emergence test/greenhouse; format: in vivo; conditions: greenhouse, 60 g of ai/ha, rated after three weeks
Method: as §1, §2, §3, §4, §5

[5] = tested on: Setaria; experiment: Pre-emergence test/greenhouse; format: in vivo; conditions: greenhouse, rated after three weeks
Method: as §1, §2, §3, §4, §5

[6] = tested on: Stellaria; experiment: Pre-emergence test/greenhouse; format: in vivo; conditions: greenhouse, rated after three weeks
Method: as §1, §2, §3, §4, §5

[7] = tested on: Veronica; experiment: Pre-emergence test/greenhouse; format: in vivo; conditions: greenhouse, rated after three weeks
Method: as §1, §2, §3, §4, §5

[8] = tested on: Viola; experiment: Pre-emergence test/greenhouse; format: in vivo; conditions: greenhouse, rated after three weeks
Method: as §1, §2, §3, §4, §5

[9] = tested on: weeds; experiment: Pre-emergence test, activity against weeds; format: in vivo
Method: as §1, §2, §3, §4, §5

[10] = tested on: Abutilon; experiment: Post-emergence test/greenhouse; format: in vivo; conditions: greenhouse, rated after three weeks
Method: as §1
(§6) To produce a suitable preparation of active compound, one part by weight of active compound is mixed with the stated amount of solvent, the stated amount of emulsifier is added and the concentrate is diluted with water to the desired concentration.
(§7) Test plants which have a height of 5-15 cm are sprayed with the preparation of active compound such that the particular amounts of active compound desired are applied per unit area. The concentration of the spray liquor is chosen so that the particular amounts of active compound desired are applied in 1000 l of water/ha.
as §4
(§8) The figures denote: • 0%=no effect (like untreated control) • 100%=total destruction

[11] = tested on: Alopecurus; experiment: Post-emergence test/greenhouse; format: in vivo; conditions: greenhouse, rated after three weeks
Method: as §1, §6, §7, §4, §8

[12] = tested on: Amaranthus; experiment: Post-emergence test/greenhouse; format: in vivo; conditions: greenhouse, rated after three weeks
Method: as §1, §6, §7, §4, §8

[13] = tested on: Avenafatua; experiment: Post-emergence test/greenhouse; format: in vivo; conditions: greenhouse, 250 g of ai/ha, rated after three weeks
Method: as §1, §6, §7, §4, §8

[14] = tested on: Setaria; experiment: Post-emergence test/greenhouse; format: in vivo; conditions: greenhouse, 250 g of ai/ha, rated after three weeks
Method: as §1, §6, §7, §4, §8

[15] = tested on: Sinapis; experiment: Post-emergence test/greenhouse; format: in vivo; conditions: greenhouse, 250 g of ai/ha, rated after three weeks
Method: as §1, §6, §7, §4, §8

[16] = tested on: Xanthium; experiment: Post-emergence test/greenhouse; format: in vivo; conditions: greenhouse, 250 g of ai/ha, rated after three weeks
Method: as §1, §6, §7, §4, §8

[17] = tested on: weeds; experiment: Post-emergence test, activity against weeds; format: in vivo
Method: as §1, §6, §7, §4, §8

[18] = tested on: Amaranthus; experiment: Pre-emergence test/greenhouse; format: in vivo; conditions: greenhouse, rated after three weeks
Method: as §1, §2, §3, §4, §5

[19] = tested on: Barley; experiment: Pre-emergence test/greenhouse; format: in vivo; conditions: greenhouse, 60 g of ai/ha, rated after three weeks
Method: as §1, §2, §3, §4, §5

[20] = tested on: Solanum; experiment: Pre-emergence test/greenhouse; format: in vivo; conditions: greenhouse, rated after three weeks
Method: as §1, §2, §3, §4, §5

[21] = tested on: Wheat; experiment: Pre-emergence test/greenhouse; format: in vivo; conditions: greenhouse, rated after three weeks
Method: as §1, §2, §3, §4, §5

[22] = tested on: Echinochloa; experiment: Post-emergence test/greenhouse; format: in vivo; conditions: greenhouse, rated after three weeks
Method: as §1, §6, §7, §4, §8

[23] = tested on: Matricaria; experiment: Post-emergence test/greenhouse; format: in vivo; conditions: greenhouse, rated after three weeks
Method: as §1, §6, §7, §4, §8

[24] = tested on: Solanum; experiment: Post-emergence test/greenhouse; format: in vivo; conditions: greenhouse, rated after three weeks
Method: as §1, §6, §7, §4, §8

[25] = tested on: Stellaria; experiment: Post-emergence test/greenhouse; format: in vivo; conditions: greenhouse, rated after three weeks
Method: as §1, §6, §7, §4, §8

[26] = tested on: Wheat; experiment: Post-emergence test/greenhouse; format: in vivo; conditions: greenhouse, rated after three weeks
Method: as §1, §6, §7, §4, §8

[27] = tested on: Cyperus; experiment: Pre-emergence test/greenhouse; format: in vivo; conditions: greenhouse, rated after three weeks
Method: as §1, §2, §3, §4, §5

[28] = tested on: Echinochloa; experiment: Pre-emergence test/greenhouse; format: in vivo; conditions: greenhouse, 125 g of ai/ha, rated after three weeks
Method: as §1, §2, §3, §4, §5

[29] = tested on: Ipomoea; experiment: Post-emergence test/greenhouse; format: in vivo; conditions: greenhouse, 8 g of ai/ha, rated after three weeks
Method: as §1, §6, §7, §4, §8

[30] = tested on: Abutilon; experiment: Pre-emergence test/greenhouse; format: in vivo; conditions: greenhouse, 250 g of ai/ha, rated after three weeks
Method: as §1, §2, §3, §4, §5

[31] = tested on: Galium; experiment: Pre-emergence test/greenhouse; format: in vivo; conditions: greenhouse, 250 g of ai/ha, rated after three weeks
Method: as §1, §2, §3, §4, §5

[32] = tested on: Sinapis; experiment: Pre-emergence test/greenhouse; format: in vivo; conditions: greenhouse, 250 g of ai/ha, rated after three weeks
Method: as §1, §2, §3, §4, §5

[33] = tested on: Xanthium; experiment: Pre-emergence test/greenhouse; format: in vivo; conditions: greenhouse, 250 g of ai/ha, rated after three weeks
Method: as §1, §2, §3, §4, §5

[34] = tested on: Barley; experiment: Post-emergence test/greenhouse; format: in vivo; conditions: greenhouse, 2 g of ai/ha, rated after three weeks
Method: as §1, §6, §7, §4, §8

[35] = tested on: Chenopodium; experiment: Post-emergence test/greenhouse; format: in vivo; conditions: greenhouse, 2 g of ai/ha, rated after three weeks
Method: as §1, §6, §7, §4, §8

[36] = tested on: Veronica; experiment: Post-emergence test/greenhouse; format: in vivo; conditions: greenhouse, 2 g of ai/ha, rated after three weeks
Method: as §1, §6, §7, §4, §8

[37] = tested on: Viola; experiment: Post-emergence test/greenhouse; format: in vivo; conditions: greenhouse, 2 g of ai/ha, rated after three weeks
Method: as §1, §6, §7, §4, §8

- melting point: 163 °C
Structure (SMILES): CCOc1nn(C(=O)NS(=O)(=O)c2c(C(=O)OC)csc2C)c(=O)n1C [Example 1, methyl 4-[[[(3-ethoxy-4,5-dihydro-4-methyl-5-oxo-1H-1,2,4-triazol-1-yl)-carbonyl]-amino]-sulphonyl]-5-methyl-thiophene-3-carboxylate]
- degree of damage to the plants, Alopecurus ([1]; 60 g of ai/ha): 90%
- degree of damage to the plants, Bromus ([2]; 60 g of ai/ha): 90%
- degree of damage to the plants, Chenopodium [3]: 100%
- degree of damage to the plants, Matricaria [4]: 95%
- degree of damage to the plants, Setaria ([5]; 60 g of ai/ha): 90%
- degree of damage to the plants, Stellaria ([6]; 60 g of ai/ha): 95%
- degree of damage to the plants, Veronica ([7]; 60 g of ai/ha): 100%
- degree of damage to the plants, Viola ([8]; 60 g of ai/ha): 100%
- activity against weeds [9]: very strong activity
- degree of damage to the plants, Abutilon ([10]; 250 g of ai/ha): 100%
- degree of damage to the plants, Alopecurus ([11]; 250 g of ai/ha): 100%
- degree of damage to the plants, Amaranthus ([12]; 250 g of ai/ha): 100%
- degree of damage to the plants, Avenafatua [13]: 100%
- degree of damage to the plants, Setaria [14]: 100%
- degree of damage to the plants, Sinapis [15]: 100%
- degree of damage to the plants, Xanthium [16]: 100%
- activity against weeds [17]: very strong activity

Structure (SMILES): CCCOc1nn(C(=O)NS(=O)(=O)c2c(C(=O)OC)csc2C)c(=O)n1C [Example 3]
- degree of damage to the plants, Alopecurus ([1]; 60 g of ai/ha): 80%
- degree of damage to the plants, Amaranthus ([18]; 60 g of ai/ha): 95%
- degree of damage to the plants, Barley [19]: 0%
- degree of damage to the plants, Solanum ([20]; 60 g of ai/ha): 90%
- degree of damage to the plants, Stellaria ([6]; 60 g of ai/ha): 95%
- degree of damage to the plants, Wheat ([21]; 60 g of ai/ha): 0%
- activity against weeds [9]: very strong activity
- degree of damage to the plants, Abutilon ([10]; 15 g of ai/ha): 95%
- degree of damage to the plants, Alopecurus ([11]; 15 g of ai/ha): 70%
- degree of damage to the plants, Amaranthus ([12]; 15 g of ai/ha): 95%
- degree of damage to the plants, Echinochloa ([22]; 15 g of ai/ha): 60%
- degree of damage to the plants, Matricaria ([23]; 15 g of ai/ha): 90%
- degree of damage to the plants, Solanum ([24]; 15 g of ai/ha): 95%
- degree of damage to the plants, Stellaria ([25]; 15 g of ai/ha): 100%
- degree of damage to the plants, Wheat ([26]; 15 g of ai/ha): 0%
- activity against weeds [17]: very strong activity

Structure (SMILES): COC(=O)c1csc(C)c1S(=O)(=O)NC(=O)n1nc(OC(C)C)n(C)c1=O [Example 4]
- degree of damage to the plants, Bromus ([2]; 125 g of ai/ha): 100%
- degree of damage to the plants, Cyperus ([27]; 125 g of ai/ha): 100%
- degree of damage to the plants, Echinochloa [28]: 100%
- degree of damage to the plants, Solanum ([20]; 125 g of ai/ha): 100%
- degree of damage to the plants, Stellaria ([6]; 125 g of ai/ha): 100%
- degree of damage to the plants, Veronica ([7]; 125 g of ai/ha): 100%
- degree of damage to the plants, Viola ([8]; 125 g of ai/ha): 100%
- degree of damage to the plants, Wheat ([21]; 125 g of ai/ha): 20%
- activity against weeds [9]: very strong activity
- degree of damage to the plants, Abutilon ([10]; 8 g of ai/ha): 95%
- degree of damage to the plants, Amaranthus ([12]; 8 g of ai/ha): 95%
- degree of damage to the plants, Ipomoea [29]: 95%
- degree of damage to the plants, Matricaria ([23]; 8 g of ai/ha): 90%
- degree of damage to the plants, Solanum ([24]; 8 g of ai/ha): 95%
- degree of damage to the plants, Stellaria ([25]; 8 g of ai/ha): 95%
- degree of damage to the plants, Wheat ([26]; 8 g of ai/ha): 10%
- activity against weeds [17]: very strong activity

Structure (SMILES): COC(=O)c1csc(C)c1S(=O)(=O)NC(=O)n1nc(OC)n(C2CC2)c1=O [Example 5]
- degree of damage to the plants, Abutilon [30]: 95%
- degree of damage to the plants, Alopecurus ([1]; 250 g of ai/ha): 99%
- degree of damage to the plants, Amaranthus ([18]; 250 g of ai/ha): 100%
- degree of damage to the plants, Cyperus ([27]; 250 g of ai/ha): 100%
- degree of damage to the plants, Galium [31]: 95%
- degree of damage to the plants, Setaria ([5]; 250 g of ai/ha): 100%
- degree of damage to the plants, Sinapis [32]: 95%
- degree of damage to the plants, Xanthium [33]: 99%
- activity against weeds [9]: very strong activity
- degree of damage to the plants, Amaranthus ([12]; 2 g of ai/ha): 99%
- degree of damage to the plants, Barley [34]: 10%
- degree of damage to the plants, Chenopodium [35]: 95%
- degree of damage to the plants, Echinochloa ([22]; 2 g of ai/ha): 95%
- degree of damage to the plants, Stellaria ([25]; 2 g of ai/ha): 100%
- degree of damage to the plants, Veronica [36]: 90%
- degree of damage to the plants, Viola [37]: 90%
- degree of damage to the plants, Wheat ([26]; 2 g of ai/ha): 10%
- activity against weeds [17]: very strong activity
